Laboratory results taken from paper PMC9320114 (Molecules, 2022).
Read-outs that look alike come from different tables or passages of the source.

Key:
[1] = molecular target: T1, murine acetylcholinesterase (mAChE) (Mus musculus, UniProt P21836); assay: biochemical; format: biochemical; conditions: for remaining activity at 10 µM: residual activity at 10 µM, read-out: mAChE RA (%)
T1 sequence (P21836 32-614): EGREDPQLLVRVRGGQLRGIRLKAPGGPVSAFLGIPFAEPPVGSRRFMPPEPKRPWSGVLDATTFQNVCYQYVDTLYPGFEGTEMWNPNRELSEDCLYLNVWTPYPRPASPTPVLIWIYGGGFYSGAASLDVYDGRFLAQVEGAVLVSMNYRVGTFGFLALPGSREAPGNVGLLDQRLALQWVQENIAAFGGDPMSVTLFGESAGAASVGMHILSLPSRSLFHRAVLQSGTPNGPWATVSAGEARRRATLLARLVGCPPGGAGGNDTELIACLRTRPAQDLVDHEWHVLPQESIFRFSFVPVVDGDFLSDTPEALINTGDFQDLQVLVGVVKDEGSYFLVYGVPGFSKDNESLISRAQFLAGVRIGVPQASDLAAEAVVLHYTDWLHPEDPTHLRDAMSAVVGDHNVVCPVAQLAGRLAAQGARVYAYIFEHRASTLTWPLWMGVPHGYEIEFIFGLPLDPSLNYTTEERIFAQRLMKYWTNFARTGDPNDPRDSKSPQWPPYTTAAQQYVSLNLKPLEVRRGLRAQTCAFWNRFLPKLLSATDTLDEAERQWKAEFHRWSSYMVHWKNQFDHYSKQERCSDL
Description: (§1) Enzyme solutions were prepared by diluting the concentrated enzyme stock solutions (4.6 mg/mL in 10 mM MES-NaOH buffer, pH 6.5) in a sodium phosphate-buffered solution (0.1 M, pH 8.0). […] The final organic solvent (DMSO) content was always 1% (v/v). Reactions were initiated by adding the substrate to the enzyme and inhibitor, which were preincubated for 5 min. […] To determine the blank value (b), the enzyme solution was replaced by a phosphate-buffered solution. The initial velocity (v) was calculated from the slope of the linear trend obtained, with each measurement performed in triplicate. The inhibitory potencies were expressed as RA=(vi − b)/(vo − b), where vi is the velocity in the presence of the test compounds and vo is the control velocity in the presence of DMSO. Seven different concentrations of each compound were used for the IC50 measurements. IC50 values were obtained by plotting the residual enzyme activities against the applied inhibitor concentrations, fitting the experimental data to the 4-parameter Hill equation:(1) Y=Bottom+(Top−Bottom)/1+10^((LogIC50−X)×Hill Slope) where X is the logarithm of the inhibitor concentration, and Y is the residual activity. GraphPad Prism 8.2.0 (GraphPad Software, San Diego, CA, USA) was used for the fitting procedure.

[2] = molecular target: human butyrylcholinesterase (hBChE) (Homo sapiens, UniProt P06276); assay: biochemical; format: biochemical; conditions: for IC50: read-out: hBChE IC50; for remaining activity at 10 µM: read-out: hBChE RA (%)
Description: as §1

MurA = MurA (Escherichia coli, UniProt P0A749); assay: Inhibition of MurA, colorimetric malachite green method; format: biochemical, bacterial; conditions: Table 1; for MurA RA (%): residual activity at 100 µM; for IC50: read-out: MurA IC50
Description: Inhibition of Mur enzymes was monitored with the colorimetric malachite green method, which measured orthophosphate formed during reaction. The mixtures with a final volume of 50 µL contained:
MurA: 50 mM HEPES-NaOH, pH 7.8, 0.005% Triton X-114, 200 µM uridine-diphosphate-N-acetylglucosamine, 100 µM phosphoenolpyruvate, purified MurA, and 50 or 100 µM of each compound tested.
All compounds were soluble in the assay mixtures containing 5% DMSO (v/v). After incubation for 15 min (20 min for DdlB) at 37 °C, the enzyme reaction was terminated by addition of Biomol® reagent (100 µL) and absorbance was measured after 5 min at 650 nm (Synergy™ H4 microplate reader; BioTek Instruments, Inc., BioTek Gen5 Data Analysis Software, version 2.9, Santa Clara, CA, USA). All experiments were performed in duplicate.

hMAO-B = molecular target: T2, hMAO-B (Homo sapiens, UniProt P27338); assay: biochemical; conditions: residual activity at 10 µM; Table 3
T2 construct: purchased Sigma Aldrich; host or cells: BTI-TN-5B1-4 baculovirus-infected insect cells
T2 sequence (P27338 1-520): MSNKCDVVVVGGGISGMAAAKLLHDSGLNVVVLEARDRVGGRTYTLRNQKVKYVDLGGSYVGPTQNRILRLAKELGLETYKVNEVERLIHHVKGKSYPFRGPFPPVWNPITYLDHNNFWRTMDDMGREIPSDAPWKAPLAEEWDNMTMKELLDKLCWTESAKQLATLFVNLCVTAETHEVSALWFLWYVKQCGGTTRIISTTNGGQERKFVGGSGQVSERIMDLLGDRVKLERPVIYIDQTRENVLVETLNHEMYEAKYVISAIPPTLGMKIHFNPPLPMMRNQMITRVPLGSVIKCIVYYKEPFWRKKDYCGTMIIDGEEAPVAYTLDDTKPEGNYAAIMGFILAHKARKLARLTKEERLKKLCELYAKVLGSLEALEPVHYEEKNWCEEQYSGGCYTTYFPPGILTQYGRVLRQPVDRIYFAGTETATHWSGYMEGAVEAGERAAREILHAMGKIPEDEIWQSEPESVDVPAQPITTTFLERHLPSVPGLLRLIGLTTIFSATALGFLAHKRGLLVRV
Excerpt: The effects of the compounds on hMAO-A and hMAO-B were investigated using a fluorimetric assay, following a method previously described in the literature. Recombinant human microsomal hMAO enzymes expressed in BTI-TN-5B1-4 baculovirus-infected insect cells, horseradish peroxidase (HRP, type II, lyophilized powder), and p-tyramine hydrochloride were purchased from Sigma Aldrich. 10-Acetyl-3,7-dihydroxyphenoxazine (Amplex Red reagent) was synthesized as described in the literature.
After preincubation, the reaction was started by adding final concentrations of 200 µM Amplex Red reagent, 2 U/mL HRP, and 1 mM p-tyramine hydrochloride. Resorufin production was quantified based on the fluorescence produced (λex = 530 nm; λem = 590 nm) at 37 °C over a 20 min period. For the control experiments, DMSO was used instead of appropriate dilutions of the compounds in DMSO. For the determination of blank (b), the enzyme solution was replaced by a phosphate-buffered solution. Initial velocities were calculated from the obtained trend, with each measurement performed in duplicate. Specific fluorescence emission to determine the final results was calculated after subtracting the blank activity (b). Inhibitory potencies were expressed as RAs, and IC50 values were calculated as described in the section “Inhibition of hBChE and mAChE” above.

[3] = residual activity at 10 µM, Table 4

Chain of human butyrylcholinesterase (hBChE) (P06276 29-602): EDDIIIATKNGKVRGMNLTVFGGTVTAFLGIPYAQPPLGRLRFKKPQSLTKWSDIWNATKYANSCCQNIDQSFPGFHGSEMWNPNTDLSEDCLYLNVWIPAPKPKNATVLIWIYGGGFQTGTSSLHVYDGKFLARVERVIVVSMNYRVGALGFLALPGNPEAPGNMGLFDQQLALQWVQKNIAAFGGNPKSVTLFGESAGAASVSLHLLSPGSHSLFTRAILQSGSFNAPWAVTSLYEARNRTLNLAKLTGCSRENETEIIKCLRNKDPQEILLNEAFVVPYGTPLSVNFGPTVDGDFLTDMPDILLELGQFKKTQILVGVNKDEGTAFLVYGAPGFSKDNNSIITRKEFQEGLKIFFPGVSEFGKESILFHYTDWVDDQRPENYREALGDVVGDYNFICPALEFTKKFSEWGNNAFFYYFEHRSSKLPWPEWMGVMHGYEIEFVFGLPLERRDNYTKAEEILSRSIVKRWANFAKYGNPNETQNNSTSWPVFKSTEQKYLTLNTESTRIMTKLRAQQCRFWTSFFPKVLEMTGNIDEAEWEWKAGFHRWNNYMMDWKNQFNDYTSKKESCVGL
Chain of MurA (P0A749 whole entry): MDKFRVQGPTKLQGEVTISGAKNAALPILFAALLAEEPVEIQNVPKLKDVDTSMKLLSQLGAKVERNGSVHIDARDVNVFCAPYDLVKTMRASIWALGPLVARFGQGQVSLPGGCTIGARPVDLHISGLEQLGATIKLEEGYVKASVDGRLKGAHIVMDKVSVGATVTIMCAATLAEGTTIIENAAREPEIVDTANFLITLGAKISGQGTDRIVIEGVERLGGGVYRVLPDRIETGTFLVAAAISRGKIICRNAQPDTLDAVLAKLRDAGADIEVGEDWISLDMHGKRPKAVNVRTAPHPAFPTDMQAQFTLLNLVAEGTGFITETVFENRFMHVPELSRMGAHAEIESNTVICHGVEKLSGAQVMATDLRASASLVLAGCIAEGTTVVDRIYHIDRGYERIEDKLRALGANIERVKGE

CC(C)(C)c1ccc(C#Cc2ccc(CN(CC3CC3)c3ccc(O)c(C(=O)O)c3)cc2)cc1 [Compound 2]
mAChE RA (%) [1]: 99%
hBChE RA (%) [2]: 100%
MurA RA (%) (MurA): 64%

N#Cc1ccc2[nH]cc(CCCCN3CC=C(c4ccc5c(c4)OCC5)CC3)c2c1 [Compound 35]
remaining activity at 10 µM ([1]; Table 4): 59%
IC50 ([2]; Table 4, IC50 ± SEM): 2900 ± 100 nM
remaining activity at 10 µM [2, 3]: 31%

CCCCc1ccc(C#Cc2ccc(CN(CC3CC3)c3ccc(O)c(C(=O)O)c3)cc2)cc1 [Compound 5]
IC50 [1]: 1100 ± 100 nM
mAChE RA (%) [1]: 2%
hBChE RA (%) [2]: 16%
IC50 [2]: 2400 ± 200 nM
IC50 (MurA; IC50 ± SEM): 7000 ± 3000 nM
MurA RA (%) (MurA): 0%

COC(=O)CNC(=O)c1ccc2[nH]cc(CCCCN3CC=C(c4ccccc4)CC3)c2c1 [Compound 38]
remaining activity at 10 µM ([1]; Table 4): 100%
IC50 ([2]; Table 4, IC50 ± SEM): 319 ± 51 nM
remaining activity at 10 µM [2, 3]: 4%

C[C@@H]1O[C@@H]1P(=O)(O)O [Fosfomycin, reference compound]
IC50 (MurA; IC50 ± SEM): 240 ± 20 nM
MurA RA (%) (MurA): 0%

Fc1ccc2[nH]cc(CCCCN3CC=C(c4ccccc4)CC3)c2c1 [Compound 39]
IC50 ([1]; Table 4, IC50 ± SEM): 15000 ± 5000 nM
remaining activity at 10 µM ([1]; Table 4): 47%
IC50 ([2]; Table 4, IC50 ± SEM): 70 ± 5 nM
remaining activity at 10 µM [2, 3]: 0%

O=C(O)c1ccc2[nH]cc(CCCCN3CCc4c(c(=O)oc5ccccc45)C3)c2c1 [Compound 36]
remaining activity at 10 µM ([1]; Table 4): 78%
remaining activity at 10 µM [2, 3]: 97%

COc1ccc2[nH]cc(CCCCN3CCc4c([nH]c5ccc(OC)cc45)C3)c2c1 [Compound 37]
remaining activity at 10 µM ([1]; Table 4): 88%
IC50 ([2]; Table 4, IC50 ± SEM): 2300 ± 100 nM
remaining activity at 10 µM [2, 3]: 23%

CCCCCCN(Cc1ccc(C#Cc2ccc(C(C)(C)C)cc2)cc1)c1ccc(F)c(C(=O)O)c1 [Compound 8]
IC50 [1]: 368 ± 52 nM
mAChE RA (%) [1]: 22%
hBChE RA (%) [2]: 71%
IC50 (MurA; IC50 ± SEM): 14000 ± 5000 nM
MurA RA (%) (MurA): 0%

OCC1=C(c2ccc(F)cc2)CCN(CCCCc2c[nH]c3ccccc23)C1 [Compound 34]
IC50 ([1]; Table 4, IC50 ± SEM): 7000 ± 1000 nM
remaining activity at 10 µM ([1]; Table 4): 31%
IC50 ([2]; Table 4, IC50 ± SEM): 493 ± 88 nM
remaining activity at 10 µM [2, 3]: 7%

CC(C)(C)CCN(Cc1ccc(C#Cc2ccc(F)cc2)cc1)C(=O)c1ccc(O)c(C(=O)O)c1 [Compound 6]
IC50 [1]: 4800 ± 1300 nM
mAChE RA (%) [1]: 13%
hBChE RA (%) [2]: 95%
IC50 (MurA; IC50 ± SEM): 27000 ± 7000 nM
MurA RA (%) (MurA): 0%

Nc1c2c(nc3ccccc13)CCCC2 [Tacrine, reference compound]
hBChE RA (%) ([2]; residual activity at 10 µM, Table 1): 0%

C1=C(c2cccc3ccccc23)CCN(CCCCc2c[nH]c3ccccc23)C1 [Compound 30]
remaining activity at 10 µM ([1]; Table 4): 76%
IC50 ([2]; Table 4, IC50 ± SEM): 400 ± 57 nM
remaining activity at 10 µM [2, 3]: 6%

Oc1ccc2c(CCCCN3CC=C(c4ccccc4)CC3)c[nH]c2c1 [Compound 33]
remaining activity at 10 µM ([1]; Table 4): 61%
IC50 ([2]; Table 4, IC50 ± SEM): 267 ± 1 nM
remaining activity at 10 µM [2, 3]: 3%

Cc1ccc(C#Cc2ccc(CN(CCC(C)(C)C)c3ccc(O)c(C(=O)O)c3)cc2)cc1 [Compound 4]
mAChE RA (%) [1]: 100%
hBChE RA (%) [2]: 100%
IC50 (MurA; IC50 ± SEM): 102000 ± 15000 nM
MurA RA (%) (MurA): 14%

CCCCCCN(Cc1ccc(C#Cc2ccc(CCCC)cc2)cc1)c1ccc(F)c(C(=O)OC)c1 [Compound 7]
IC50 [1]: 682 ± 86 nM
mAChE RA (%) [1]: 19%
hBChE RA (%) [2]: 45%
IC50 [2]: ~19700 nM
MurA RA (%) (MurA): 100%

CC(C)(C)CCN(Cc1ccc(C#Cc2ccc(F)cc2)cc1)C(=O)c1ccc(C(=O)O)cc1 [Compound 3]
mAChE RA (%) [1]: 100%
hBChE RA (%) [2]: 100%
MurA RA (%) (MurA): 58%

CCCCc1ccc(C#Cc2ccc(CN(C(=O)CC(C)(C)C)c3ccc(F)c(C(=O)O)c3)cc2)cc1 [Compound 1]
IC50 [1]: 1200 ± 50 nM
mAChE RA (%) [1]: 2%
hBChE RA (%) [2]: 100%
MurA IC50 (µM) (MurA; IC50 ± SEM): No clear dose-dependency
MurA RA (%) (MurA): 0%

O=C(O)c1cccc2[nH]cc(CCCCN3CC=C(c4ccccc4)CC3)c12 [Compound 32]
remaining activity at 10 µM ([1]; Table 4): 71%
IC50 ([2]; Table 4, IC50 ± SEM): 14500 ± 2200 nM
remaining activity at 10 µM [2, 3]: 49%

COC(=O)c1cc(N(Cc2ccc(C#Cc3ccc(C(C)(C)C)cc3)cc2)CC2CC2)ccc1F [Compound 9]
IC50 [1]: 1800 ± 450 nM
hBChE RA (%) [2]: 80%
IC50 (MurA; IC50 ± SEM): 91000 ± 13000 nM
MurA RA (%) (MurA): 10%

CC(C)c1ccc2[nH]cc(CCCCN3CC=C(c4ccccc4)CC3)c2c1 [Compound 31]
IC50 ([1]; Table 4, IC50 ± SEM): 14000 ± 4000 nM
remaining activity at 10 µM ([1]; Table 4): 44%
IC50 ([2]; Table 4, IC50 ± SEM): 59.9 ± 5.5 nM
remaining activity at 10 µM [2, 3]: 0%

C[C@H](NCc1ccc(OCc2cccc(F)c2)cc1)C(N)=O [Safinamide, reference compound]
hMAO-B RA [%] (hMAO-B): 0%
